Source: patent US10294248B2, “Beta-lactamase inhibitors” (VenatoRx Pharmaceuticals, Inc., priority 2013, dated 2019)

What was measured:
[1] = tested on: S. aureus MSSA-7 producing penicillinase PC-1; test: Broth microdilution MIC, S. aureus MSSA-7 PC-1; assay type: cell-based; details: fixed 4 μg/mL piperacillin; CAMHB, 16-20 hours at 37° C.
Source text: (§1) To determine the ability of test compounds to potentiate the inhibition of the growth of bacterial strains that produce beta-lactamase enzymes, classic cell based broth microdilution MIC assays were employed. Six bacteria strains producing beta-lactamase enzymes were used: E. coli expressing the Class A Extended Spectrum Beta-Lactamase (ESBL) CTX-M-15, E. cloacae expressing the Class C P99, K. pneumoniae expressing the Class A carbapenemase KPC-3, P. aeruginosa expressing the Class B carbapenemase VIM-2, K. pneumoniae expressing the class A carbapenemase KPC-2 and the class B carbapenemase VIM-4, and S. aureus producing the Class A penicillinase PC-1. The assay was conducted in Cation Adjusted Mueller Hinton Broth (CAMHB, BD #212322, BD Diagnostic Systems, Sparks, Md.). Bacteria strains were grown for 3-5 hours in CAMBH broth. Test compounds (Examples 1-30) were added to a microtiter plate in 2-fold serial dilutions in CAMHB in a final concentration range of 32 μg/mL to 0.25 μg/ml. An overlay of CAMHB containing a Beta-lactam was added to the compounds at a final static concentration of 4 μg/ml. […] In addition to the titration of test compounds the MICs of a panel of control beta-lactams is also tested to ensure the strains are behaving consistently from test to test. Once the test compound and antibiotics are added the plates can be inoculated according to CLSI broth microdilution method. After inoculation the plates are incubated for 16-20 hours at 37° C. then the Minimal Inhibitory Concentration (MIC) of the test compound is determined visually.
(§2) Using the methodology described above, examples of the current invention were evaluated for their ability to inhibit the growth of β-lactamase-producing bacteria in the presence of a β-lactam antibiotic.
(§3) Using the methodology described above in EXAMPLE III, exemplary compounds for Formula I or Formula Ia were evaluated for their ability to inhibit the growth of β-lactamase producing bacteria in the presence of a β-lactam antibiotic.

[2] = target: T1, SHV-5 β-lactamase (Class A ESBL) (Klebsiella pneumoniae, UniProt P0A3M1); test: β-Lactamase inhibition, SHV-5; assay type: biochemical
T1 construct: made in house; host or cells: E. coli BL21(DE3)
T1 sequence (P0A3M1 22-286): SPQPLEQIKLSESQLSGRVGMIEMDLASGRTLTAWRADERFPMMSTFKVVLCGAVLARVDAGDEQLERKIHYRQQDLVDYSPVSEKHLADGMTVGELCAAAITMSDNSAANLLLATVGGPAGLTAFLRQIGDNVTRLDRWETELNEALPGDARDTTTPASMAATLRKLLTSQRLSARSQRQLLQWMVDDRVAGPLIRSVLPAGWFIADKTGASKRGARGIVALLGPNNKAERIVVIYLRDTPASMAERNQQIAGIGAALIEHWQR
Procedure: (§4) For SHV-5, Kpc-2, p99AmpC and OXA-1 β-lactamases, E. coli BL21(DE3) bacterial cells carrying expression plasmids (expressed as native untagged proteins) for the individual β-lactamases were grown in 1 L of Superbroth (Teknova Inc. Hollister, Calif.) supplemented with 100 μg/ml kanamycin selection and 1×5052 (0.5% glycerol, 0.05% glucose and 0.2% α-lactose) at 35° C. for 18-20 hours. Cells were harvested by centrifugation (4,000×g, 4° C., 20 min), resuspended in 50 ml of 10 mM HEPES pH 7.5 ( 1/20 of the initial volume). The cells were lysed by sonication (5 pulses of 45 seconds) at 45 W on ice. The lysates were clarified by centrifugation at 10,000×g for 40 minutes at 4° C. Samples were diluted 5-fold in 50 mM sodium acetate pH 5.0, stored overnight at 4° C., after which they were centrifuged at 10,000×g for 30 minutes to clarify, and filtered through 0.45 μm filters. The samples were loaded onto a 5 ml Capto S sepharose cation exchange column (GE Healthcare) pre-equilibrated with 50 mM sodium acetate pH 5.0. The column was washed with 5 column volumes of 50 mM sodium acetate pH 5.0 to wash out unbound protein and a linear gradient of NaCl (0 to 500 mM) was used to elute the protein (over 16 CV) from the column. Fractions were assayed for β-lactamase activity using Centa (Calbiochem, Gibbstown, N.J.) or Nitrocefin (EMD Millipore chemicals, Darmstadt, Germany) as a reporter β-lactamase substrate for activity in the isolated fractions. Active fractions were pooled, concentrated and further purified by gel filtration chromatography on a Superdex 75 prep grade gel filtration column (GE Healthcare, Piscataway, N.J.) pre-equilibrated in 50 mM Hepes pH 7.5, 150 mM NaCl. Active fractions were pooled concentrated, quantitated by BCA protein determination (Thermo Scientific, Rockford, Ill.), dialyzed into PBS and frozen at −80° C. in 20% glycerol until use.
(§5) An equal volume of diluted enzyme stock was added, and the plates were incubated at 37° C. for 15 min. Nitrocefin was used as substrate for p99 AmpC, VIM-2 and OXA-1 and dispensed into each well at a final concentration of 100 μM. Absorbance at 486 nm was immediately monitored for 10 min using a Biotek Powerwave XS2 microplate spectrophotometer using the GEN5 software package (Biotek Instruments, Winooski Vt.). In an analogous fashion, imipenem was used as substrate for Kpc-2 and Cefotaxime was used for SHV-5, while changes in absorbance upon hydrolysis of the β-lactam ring were monitored at 300 nm and 260 nm respectively in UV-transparent 96-well microtiter assay plates. Maximum rates of hydrolysis were compared to those in control wells (without inhibitors), and percentages of enzyme inhibition were calculated for each concentration of inhibitor. The concentration of inhibitor needed to reduce the initial rate of hydrolysis of substrate by 50% (IC50) was calculated as the residual activity of β-lactamase at 486 nm using GraFit version 7 kinetics software package (Erithacus Software, Surrey, UK).
(§6) Using the methodology described above, examples of the current invention were evaluated for their ability to inhibit β-lactamase enzymes from all four Ambler classifications (A through D). […] NT=Not tested.

[3] = tested on: K. pneumoniae 156319 expressing KPC-3; test: Broth microdilution MIC, K. pneumoniae 156319 KPC-3; assay type: cell-based; details: fixed 4 μg/mL meropenem; CAMHB, 16-20 hours at 37° C.
Source text: as §1, §2, §3

[4] = target: T2, VIM-2 metallo-β-lactamase (Class B) (Pseudomonas aeruginosa, UniProt Q9K2N0); test: β-Lactamase inhibition, VIM-2; assay type: biochemical; details: nitrocefin 100 μM, 486 nm; 15 min preincubation at 37° C., PBS pH 7.4
T2 construct: made in house; host or cells: E. coli BL21(DE3)
Procedure: For Vim-2 metallo β-lactamase, the procedure was identical with the following exceptions, first the protein was not pH adjusted to pH 5 with 50 mM sodium acetate, second, the chromatography step was changed to a 5 ml Q sepharose anion exchange column pre-equilibrated with 50 mM Hepes pH 7.5, and elution of the protein was achieved by a linear gradient of NaCl (0-600 mM). Finally, the VIM-2 purification required a second run (3rd step) on the Q sepharose anion exchange column to achieve acceptable purity (>90%).
as §5, §6

[5] = target: T3, KPC-2 β-lactamase (Class A carbapenemase) (Klebsiella pneumoniae, UniProt Q9F663); test: β-Lactamase inhibition, KPC-2; assay type: biochemical; details: imipenem substrate, 300 nm; 15 min preincubation at 37° C., PBS pH 7.4
T3 construct: made in house; host or cells: E. coli BL21(DE3)
T3 sequence (Q9F663 25-293, looked up): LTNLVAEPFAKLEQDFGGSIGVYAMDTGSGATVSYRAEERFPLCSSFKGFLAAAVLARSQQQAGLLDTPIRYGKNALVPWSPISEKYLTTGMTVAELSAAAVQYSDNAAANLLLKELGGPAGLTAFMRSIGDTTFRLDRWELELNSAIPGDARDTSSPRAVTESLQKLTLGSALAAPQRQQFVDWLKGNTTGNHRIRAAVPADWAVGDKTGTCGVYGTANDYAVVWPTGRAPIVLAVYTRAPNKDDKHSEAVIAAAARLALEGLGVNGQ
Procedure: as §4, §5, §6

[6] = tested on: E. coli ESBL4 expressing CTX-M-15; test: Broth microdilution MIC, E. coli ESBL4 CTX-M-15; assay type: cell-based; details: fixed 4 μg/mL ceftazidime; CAMHB, 16-20 hours at 37° C.
Source text: as §1, §2, §3

[7] = target: T4, OXA-1 β-lactamase (Class D oxacillinase) (Escherichia coli, UniProt P13661); test: β-Lactamase inhibition, OXA-1; assay type: biochemical; details: nitrocefin 100 μM, 486 nm; 15 min preincubation at 37° C., PBS pH 7.4
T4 construct: made in house; host or cells: E. coli BL21(DE3)
T4 sequence (P13661 26-276): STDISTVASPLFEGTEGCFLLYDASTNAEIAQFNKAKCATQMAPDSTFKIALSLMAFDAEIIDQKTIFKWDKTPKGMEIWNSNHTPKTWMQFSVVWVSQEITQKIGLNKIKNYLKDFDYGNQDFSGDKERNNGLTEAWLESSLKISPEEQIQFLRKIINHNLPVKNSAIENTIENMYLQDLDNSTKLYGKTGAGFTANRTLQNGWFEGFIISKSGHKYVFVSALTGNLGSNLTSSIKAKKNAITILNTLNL
Procedure: as §4, §5, §6

[8] = tested on: P. aeruginosa Ps296 expressing VIM-2; test: Broth microdilution MIC, P. aeruginosa Ps296 VIM-2; assay type: cell-based; details: fixed 4 μg/mL meropenem; CAMHB, 16-20 hours at 37° C.
Source text: as §1, §2, §3

[9] = tested on: E. cloacae 144200 expressing Class C P99 AmpC; test: Broth microdilution MIC, E. cloacae 144200 p99 AmpC; assay type: cell-based; details: fixed 4 μg/mL ceftazidime; CAMHB, 16-20 hours at 37° C.
Source text: as §1, §2, §3

[10] = tested on: K. pneumoniae A-1797 expressing KPC-2 and VIM-4; test: Broth microdilution MIC, K. pneumoniae A-1797 KPC-2/VIM-4; assay type: cell-based; details: fixed 4 μg/mL meropenem; CAMHB, 16-20 hours at 37° C.
Source text: as §1, §2, §3

[11] = target: T5, p99 AmpC β-lactamase (Class C) (Enterobacter cloacae, UniProt P05364); test: β-Lactamase inhibition, p99 AmpC; assay type: biochemical
T5 construct: made in house; host or cells: E. coli BL21(DE3)
T5 sequence (P05364 21-381): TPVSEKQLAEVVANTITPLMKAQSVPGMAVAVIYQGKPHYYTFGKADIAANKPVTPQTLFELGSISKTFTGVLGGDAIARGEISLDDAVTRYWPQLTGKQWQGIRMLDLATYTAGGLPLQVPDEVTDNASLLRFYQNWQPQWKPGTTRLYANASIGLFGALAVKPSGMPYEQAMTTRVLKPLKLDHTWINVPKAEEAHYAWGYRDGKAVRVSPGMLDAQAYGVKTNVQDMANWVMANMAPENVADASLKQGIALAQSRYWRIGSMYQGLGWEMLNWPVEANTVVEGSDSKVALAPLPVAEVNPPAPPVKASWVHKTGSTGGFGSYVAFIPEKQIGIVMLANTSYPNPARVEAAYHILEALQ
Procedure: as §4, §5, §6

SMILES	MIC of example compound in presence of fixed β-lactam: Fixed Pip, S. aureus MSSA-7 PC-1 [1]	IC50 [2]	MIC of example compound in presence of fixed β-lactam: Fixed Mero, K. P. 156319 KPC-3 [3]	IC50 [4]	IC50 [5]	MIC of example compound in presence of fixed β-lactam: Fixed CAZ, E. coli ESBL4 CTX-M-15 [6]	IC50 [7]	MIC of example compound in presence of fixed β-lactam: Fixed Mero, P. aerug. Ps296 VIM-2 [8]	MIC of example compound in presence of fixed β-lactam: Fixed CAZ, E. cl. 144200 p99 AmpC [9]	MIC of example compound in presence of fixed β-lactam: Fixed Mero, K. P. A-1797 KPC-2 VIM-4 [10]	IC50 [11]
N=C(N)NCCN1CCC(CCC(=O)N[C@H]2Cc3cccc(C(=O)O)c3OB2O)CC1 [Example 34, 3-{3-[1-(2-Guanidino-ethyl)-piperidin-4-yl]-propionylamino}-2-hydroxy-3,4-dihydro-2H-benzo[e][1,2]oxaborinine-8-carboxylic acid]	C (the MIC in the presence of <4 μg/mL of a β-lactamase inhibitor)	< 0.1 µM	A (an MIC of the fixed β-lactam antibiotic in the presence of >32 μg/mL of a β-lactamase inhibitor)	10 to 100 µM	0.1 to 1 µM	C (the MIC in the presence of <4 μg/mL of a β-lactamase inhibitor)	0.1 to 1 µM	A (an MIC of the fixed β-lactam antibiotic in the presence of >32 μg/mL of a β-lactamase inhibitor)	C (the MIC in the presence of <4 μg/mL of a β-lactamase inhibitor)	A (an MIC of the fixed β-lactam antibiotic in the presence of >32 μg/mL of a β-lactamase inhibitor)	0.1 to 1 µM
O=C(CN1CCC(O)CC1)N[C@H]1Cc2cccc(C(=O)O)c2OB1O [Example 12, 2-Hydroxy-3-[2-(4-hydroxy-piperidin-1-yl)-acetylamino]-3,4-dihydro-2H-benzo[e][1,2]oxaborinine-8-carboxylic acid]	C (the MIC in the presence of <4 μg/mL of a β-lactamase inhibitor)	< 0.1 µM	C (the MIC in the presence of <4 μg/mL of a β-lactamase inhibitor)	0.1 to 1 µM	< 0.1 µM	C (the MIC in the presence of <4 μg/mL of a β-lactamase inhibitor)	< 0.1 µM	B (the MIC in the presence of between 8 and 32 μg/mL of a β-lactamase inhibitor)	C (the MIC in the presence of <4 μg/mL of a β-lactamase inhibitor)	B (the MIC in the presence of between 8 and 32 μg/mL of a β-lactamase inhibitor)	< 0.1 µM
NCCN1CCC(NCC(=O)N[C@H]2Cc3cccc(C(=O)O)c3OB2O)CC1 [Example 52, 3-{2-[1-(2-Amino-ethyl)-piperidin-4-ylamino]-acetylamino}-2-hydroxy-3,4-dihydro-2H-benzo[e][1,2]oxaborinine-8-carboxylic acid]	C (the MIC in the presence of <4 μg/mL of a β-lactamase inhibitor)	< 0.1 µM	C (the MIC in the presence of <4 μg/mL of a β-lactamase inhibitor)	1 to 10 µM	< 0.1 µM	C (the MIC in the presence of <4 μg/mL of a β-lactamase inhibitor)	< 0.1 µM	B (the MIC in the presence of between 8 and 32 μg/mL of a β-lactamase inhibitor)	C (the MIC in the presence of <4 μg/mL of a β-lactamase inhibitor)	B (the MIC in the presence of between 8 and 32 μg/mL of a β-lactamase inhibitor)	< 0.1 µM
NC1CCN(CC(=O)N[C@H]2Cc3cccc(C(=O)O)c3OB2O)CC1 [Example 1, 3-[2-(4-Amino-piperidin-1-yl)-acetylamino]-2-hydroxy-3,4-dihydro-2H-benzo[e][1,2]oxaborinine-8-carboxylic acid]	C (the MIC in the presence of <4 μg/mL of a β-lactamase inhibitor)	< 0.1 µM		10 to 100 µM	< 0.1 µM	C (the MIC in the presence of <4 μg/mL of a β-lactamase inhibitor)	0.1 to 1 µM	A (an MIC of the fixed β-lactam antibiotic in the presence of >32 μg/mL of a β-lactamase inhibitor)	B (the MIC in the presence of between 8 and 32 μg/mL of a β-lactamase inhibitor)	A (an MIC of the fixed β-lactam antibiotic in the presence of >32 μg/mL of a β-lactamase inhibitor)	< 0.1 µM
